Measurements taken from patent publication US20240174622A1, “COMPOUND AND RADIOACTIVE LABELING COMPOUND” (NIHON MEDI-PHYSICS CO., LTD., priority 2021, published 2024).

Tests used:
[1] = target: human serum albumin (HSA) (Homo sapiens, UniProt P02768); assay: Evaluation of binding to albumin (HSA solution, PBS control); details: left to stand in HSA solution (45 mg/mL)
Method: Thereafter, the reaction liquids were added to a spin column (Sephadex G-100; manufactured by Cytiva), and centrifuged at 1500×g at 4° C. for 2 minutes. After separation, the radioactivity for each of the column and the eluate was measured with a gamma counter.
When a compound to be evaluated binds to albumin to form a composite, the compound passes through the column because of the increased molecular size.
As in Examples described above, PBS and human albumin were used to evaluate binding to albumin.
Thereafter, the reaction liquid was added to a spin column (Sephadex G-50; manufactured by Cytiva), and centrifuged at 1500×g at 4° C. for 2 minutes. After separation, the radioactivity of the column and the eluate was measured with a gamma counter.

[2] = tested on: LNCaP tumor-transplanted mouse; assay: Internal radioactivity distribution using LNCaP tumor-transplanted mouse; type: in vivo
Method: (§1) The animal test was performed in compliance with the guidelines of Kyoto University Animal Experiment Committee. Male CB17/IcrJcl-Prkdc^scid mice were purchased from CLEA Japan, Inc. The animals were kept under 12 h/12 h, day/night cycle conditions and fed ad libitum with food and water. LNCaP cells (1.0×10^7 cells/mouse) or PC-3 cells (1.0×10^7 cells/mouse) were suspended in a mixture of PBS and Matrigel manufactured by Corning Life Sciences (1:1, 150 μL) and the suspension was subcutaneously transplanted to the right shoulder of mice under isoflurane anesthesia. Thereafter, the mice were kept for 40 to 60 days.
LNCaP or PC-3 tumor-implanted mice were administered saline solutions (185 kBq, 100 μL) of [^111In]In-PSMA-DA1 or [^111In]In-PSMA-DB from the tail vein (n=3 each). Mice were euthanized 1, 4, 24, 48, 96, and 192 hours after administration. Thereafter, blood and each organ were recovered, and the mass and radioactivity of the organs were measured.
The percentage (% ID) of the radioactivity amount to the administered radioactivity amount (injected dose) is shown as the value (% ID/g) divided by the blood mass or the organ mass (g).
LNCaP tumor-implanted mice prepared by the same method as in Example 1-1 were administered a saline solution (241 kBq/100 μL) of [^111In]In-PtDA from the tail vein (n=3). Mice were euthanized 1, 24, and 48 hours after administration. Thereafter, blood and each organ were recovered, and the mass and radioactivity of the organs were measured.
LNCaP tumor-implanted mice prepared by the same method as in Example 1-1 were administered a saline solution (259 kBq/100 μL each) of each of the radiolabeled compounds in Examples 3-1 to 3-3 or Comparative Examples 2-1 to 2-2 from the tail vein (n=2 to 3). Mice were euthanized 1, 4, 24, 48, 96, and 192 hours after administration. Thereafter, blood and each organ were recovered, and the mass and radioactivity of the organs were measured.
as §1, with “LNCaP cells (4.3×10^6 cells/mouse) or” for “LNCaP cells (1.0×10^7 cells/mouse) or”, “PC-3 cells (3.3×10^6 cells/mouse) were” for “PC-3 cells (1.0×10^7 cells/mouse) were”, “shoulder of CB17/IcrJcl-Prkdc^scid mice under” for “shoulder of mice under”
Mice were euthanized 1, 4, 24, 48, 96, and 192 hours after administration. Thereafter, blood and each organ were recovered, and the mass and radioactivity of the organs were measured.
The results are shown in Table 12 (Mean value±standard deviation, n=3).

Sequence of human serum albumin (HSA) (P02768 25-609): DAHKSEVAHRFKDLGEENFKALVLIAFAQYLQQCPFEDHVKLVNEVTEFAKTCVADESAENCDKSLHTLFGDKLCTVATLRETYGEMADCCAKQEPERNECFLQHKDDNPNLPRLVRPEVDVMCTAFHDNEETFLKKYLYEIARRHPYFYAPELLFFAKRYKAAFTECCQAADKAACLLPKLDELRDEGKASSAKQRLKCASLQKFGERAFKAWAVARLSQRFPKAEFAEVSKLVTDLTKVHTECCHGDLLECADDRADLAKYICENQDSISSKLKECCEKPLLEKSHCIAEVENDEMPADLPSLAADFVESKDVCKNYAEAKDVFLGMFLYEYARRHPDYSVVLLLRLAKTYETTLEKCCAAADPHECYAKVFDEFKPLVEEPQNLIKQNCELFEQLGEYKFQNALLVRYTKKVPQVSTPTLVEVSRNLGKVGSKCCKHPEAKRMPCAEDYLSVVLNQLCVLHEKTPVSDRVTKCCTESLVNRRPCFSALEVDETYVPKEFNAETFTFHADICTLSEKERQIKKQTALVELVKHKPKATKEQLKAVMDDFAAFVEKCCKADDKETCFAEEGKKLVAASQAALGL

radioactivity in the eluate (in words) [1]: low
Blood ([2]; 1 h after administration): 0.48 ± 0.09 % ID/g
Brain ([2]; 1 h after administration): 0.02 ± 0.00 % ID/g
Heart ([2]; 1 h after administration): 0.32 ± 0.08 % ID/g
Intestine ([2]; 1 h after administration): 0.40 ± 0.13 % ID/g
Kidney ([2]; 1 h after administration): 322 ± 42.8 % ID/g
LNCaP Tumor ([2]; 1 h after administration): 9.72 ± 1.65 % ID/g
Liver ([2]; 1 h after administration): 0.36 ± 0.13 % ID/g
Lung ([2]; 1 h after administration): 0.99 ± 0.22 % ID/g
Muscle ([2]; 1 h after administration): 0.20 ± 0.01 % ID/g
Pancreas ([2]; 1 h after administration): 0.62 ± 0.19 % ID/g
Spleen ([2]; 1 h after administration): 10.9 ± 5.59 % ID/g
Stomach (% ID) ([2]; 1 h after administration): 0.08 ± 0.01 % ID
Blood ([2]; 4 h after administration): 0.21 ± 0.18 % ID/g
Brain ([2]; 4 h after administration): 0.02 ± 0.01 % ID/g
Heart ([2]; 4 h after administration): 0.18 ± 0.03 % ID/g
Intestine ([2]; 4 h after administration): 3.50 ± 1.21 % ID/g
Kidney ([2]; 4 h after administration): 112 ± 54.6 % ID/g
LNCaP Tumor ([2]; 4 h after administration): 4.73 ± 0.40 % ID/g
Liver ([2]; 4 h after administration): 0.13 ± 0.02 % ID/g
Lung ([2]; 4 h after administration): 0.23 ± 0.10 % ID/g
Muscle ([2]; 4 h after administration): 0.10 ± 0.02 % ID/g
Pancreas ([2]; 4 h after administration): 0.24 ± 0.07 % ID/g
Spleen ([2]; 4 h after administration): 3.55 ± 1.75 % ID/g
Stomach (% ID) ([2]; 4 h after administration): 0.37 ± 0.22 % ID
Blood ([2]; 24 h after administration): 0.02 % ID/g
Brain ([2]; 24 h after administration): 0.04 ± 0.04 % ID/g
Heart ([2]; 24 h after administration): 0.04 ± 0.01 % ID/g
Intestine ([2]; 24 h after administration): 0.27 ± 0.08 % ID/g
Kidney ([2]; 24 h after administration): 24.9 ± 10.9 % ID/g
LNCaP Tumor ([2]; 24 h after administration): 2.00 ± 0.61 % ID/g
Liver ([2]; 24 h after administration): 0.06 ± 0.01 % ID/g
Lung ([2]; 24 h after administration): 0.13 ± 0.06 % ID/g
Muscle ([2]; 24 h after administration): 0.01 ± 0.01 % ID/g
Pancreas ([2]; 24 h after administration): 0.12 ± 0.03 % ID/g
Spleen ([2]; 24 h after administration): 2.48 ± 1.44 % ID/g
Stomach (% ID) ([2]; 24 h after administration): 0.03 ± 0.01 % ID
Blood ([2]; 48 h after administration): 0.00 ± 0.00 % ID/g
Brain ([2]; 48 h after administration): 0.01 ± 0.00 % ID/g
Heart ([2]; 48 h after administration): 0.02 ± 0.03 % ID/g
Intestine ([2]; 48 h after administration): 0.52 ± 0.33 % ID/g
Kidney ([2]; 48 h after administration): 7.48 ± 1.23 % ID/g
LNCaP Tumor ([2]; 48 h after administration): 0.58 ± 0.11 % ID/g
Liver ([2]; 48 h after administration): 0.04 ± 0.01 % ID/g
Lung ([2]; 48 h after administration): 0.06 ± 0.02 % ID/g
Muscle ([2]; 48 h after administration): 0.01 ± 0.02 % ID/g
Pancreas ([2]; 48 h after administration): 0.05 ± 0.01 % ID/g
Spleen ([2]; 48 h after administration): 1.64 ± 0.53 % ID/g
Stomach (% ID) ([2]; 48 h after administration): 0.07 ± 0.04 % ID
Blood ([2]; 96 h after administration): 0.02 ± 0.01 % ID/g
Brain ([2]; 96 h after administration): 0.01 ± 0.00 % ID/g
Heart ([2]; 96 h after administration): 0.03 ± 0.00 % ID/g
Intestine ([2]; 96 h after administration): 0.13 ± 0.05 % ID/g
Kidney ([2]; 96 h after administration): 7.24 ± 3.00 % ID/g
LNCaP Tumor ([2]; 96 h after administration): 0.72 ± 0.11 % ID/g
Liver ([2]; 96 h after administration): 0.08 ± 0.02 % ID/g
Lung ([2]; 96 h after administration): 0.09 ± 0.03 % ID/g
Muscle ([2]; 96 h after administration): 0.03 ± 0.04 % ID/g
Pancreas ([2]; 96 h after administration): 0.04 ± 0.00 % ID/g
Spleen ([2]; 96 h after administration): 2.06 ± 0.88 % ID/g
Stomach (% ID) ([2]; 96 h after administration): 0.03 ± 0.01 % ID
Blood ([2]; 192 h after administration): 0.00 % ID/g
Brain ([2]; 192 h after administration): 0.01 % ID/g
Heart ([2]; 192 h after administration): 0.01 % ID/g
Intestine ([2]; 192 h after administration): 0.02 % ID/g
Kidney ([2]; 192 h after administration): 2.16 % ID/g
LNCaP Tumor ([2]; 192 h after administration): 0.36 % ID/g
Liver ([2]; 192 h after administration): 0.05 % ID/g
Lung ([2]; 192 h after administration): 0.04 % ID/g
Muscle ([2]; 192 h after administration): 0.02 % ID/g
Pancreas ([2]; 192 h after administration): 0.05 % ID/g
Spleen ([2]; 192 h after administration): 0.85 % ID/g
Stomach (% ID) ([2]; 192 h after administration): 0.01 % ID
Compound: O=C([O-])CN(Cc1cccc(C(=O)[O-])n1)C[C@H](Cc1ccc(NC(=O)CCCCCNC(=O)CCC(=O)NCCCC[C@H](NC(=O)N[C@@H](CCC(=O)O)C(=O)O)C(=O)O)cc1)N(CC(=O)[O-])Cc1cccc(C(=O)[O-])n1.[111In+3] [[^111In]In-Octapa-1, reference compound]
